Where “and” joins values, the source holds several entries; their conditions need not be identical. Equal entries are not always repeated.

The target of one test is alpha synuclein fibrils (Homo sapiens, UniProt P37840). Nature of the test: MPA of alpha-synuclein fibrils in CSF or plasma. It counts as binding. The protocol:
Amylin fibrils were prepared as reported in J. Biological Chem. (1999) 274, No. 28, pp 19509-19512. To denature the fibrils, samples were treated with 5.4 M guanidine thiocyanate for 30 minutes at room temperature. The samples were then diluted to the indicated concentrations and alpha synuclein was detected by a sandwich ELISA (Invitrogen; catalog #KHB0061) according to the manufacturer's instructions.
The specificity of PSR1 beads for aggregated alpha synuclein was tested by incubating 3 ul PSR1 beads with fibrillar alpha-synuclein with or without a pretreatment with chemical denaturant (5.4 M guanidine thiocyanate for 30 minutes at room temperature). Alpha synuclein was diluted into 125 ul 80% CSF or plasma in TBSTT (50 mM Tris, 150 mM NaCl, 1% TritonX-100, 1% Tween20) at the indicated concentrations. Samples were incubated for 1 hour at 37 C and 550 rpm before washing with TBS 0.05% Tween20 buffer. Bound alpha synuclein was eluted from the beads with 4 ul 6 M guanidine thiocyanate (30 minutes at room temperature), diluted with 246 ul ELISA diluent buffer and then detected by sandwich ELISA (Invitrogen; catalog #KHB0061).

In another test the target is T1, Abeta 1-42 globulomer (Homo sapiens, UniProt P05067).
T1 construct: beta amyloid (1-42) was monomerized with incubation in hexafluoroisopropanol
T1 sequence (P05067 672-713 limits assumed): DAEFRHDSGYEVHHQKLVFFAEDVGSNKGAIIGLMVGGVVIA
The test can be described thus: Globulomer capture assay in CSF (Example 6). The class given is binding.

In another test the target is T2, Abeta 1-40 monomer (Homo sapiens, UniProt P05067).
T2 construct: Abeta 1-40 monomer capture level; from tissue; host or cells: cerebrospinal fluid (matrix of the assay)
T2 sequence (P05067 672-711 limits assumed): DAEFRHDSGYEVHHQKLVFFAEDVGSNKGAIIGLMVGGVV
The test can be described thus: Globulomer capture assay in CSF (Example 6): Abeta 1-40 noise. The class given is binding. The following applies: Abeta 1-40 signal (noise), CSF samples. As for the experimental part:
A series of new potential aggregate-specific binding reagents were designed as shown below and conjugated onto magnetic Dynal M270 beads as described in Example 2. Typically 7-12 nmol of ligand (each candidate aggregate-specific binding reagent) was coated onto 1 mg of beads.
Aliquots of the beads (typically 3 ul) were added to wells of a 96 well plate, followed by sample (with or without Abeta 1-42 globulomer (an Abeta42 oligomer model) spiked in 80:20 CSF:TBSTT, typically 125 ul). The plate was sealed and incubated for 1 hour at 37° C. with shaking. The plate was washed with aqueous solutions of detergent (typically polyethylene glycol sorbitan monolaurate and n-tetradecyl-N,N-dimethyl-3-ammonio-1-propanesulfonate) to remove ubound material and the residual buffer removed. A denaturing solution (typically 0.1-0.15 N NaOH) was added to each well and the plate heated to 80° C. for 30 min with shaking. After cooling the plate to room temperature, a neutralizing buffer (typically 0.12-0.18 M NaH2PO3 in 0.4% TWEEN20,) was added and the plate was shaken briefly at room temperature. The bead eluate was analyzed using either an Aβ42-specific ELISA or the MSD® 96-Well MULTI-SPOT® Human/Rodent [4G8] Abeta Triplex Ultra-Sensitive Assay from Meso Scale Discovery (Gaithersburg, Md.). For the Aβ42-specific assay, the samples were eluted from the beads and a detection antibody (4G8 HRP) was added to a plate bearing the Aβ42-specific antibody 12F4. The plate was incubated for 1 hour, washed, the substrate was added (SuperSignal West Femto Maximum Sensitivity Substrate from Thermo Fisher, Rockville, Md.), and the luminescence was measured. The MSD plate assay was performed in a similar fashion, according to the manufacturer's protocol.
In this experiment the preferred number of charges within a given scaffold was identified. An Ala/Lys peptide framework was utilized, where the inclusion of each Lys residue increases the peptides' net charge by +1. Six hexapeptides with increasing charge (+1→+6), AAAKAA, AAKKAA, AAKKKA, AKKKKA, AKKKKK, and KKKKKK, were prepared and conjugated on the beads. The ability of these beads to capture Abeta 1-42 globulomer spiked at 1 ng/mL into CSF was tested, and the result is shown in FIG. 25. The globulomer capture level (“42 1 ng/ml” or the closed bars) was compared to the background signal of Abeta 1-42 detected in the unspiked CSF (“42 0 ng/ml”) and the background signal of Abeta 1-40 detected in unspiked CSF (“40 0 ng/ml”) or CSF spiked with AB42 oligomers “40 1 ng/ml”. The charge density, as conjugated to the magnetic beads, of each reagent evaluated in this experiment is shown below in Table 8.

The test system of test [1] is Alzheimer's Disease Brain Homogenate (ADBH) Aβ aggregates. The test can be described thus: Misfolded Protein Assay, LoD in CSF: ADBH. The following applies: spiked into CSF. The class given is binding, human. As for the experimental part: (§1) The Ab42 aggregates were prepared as previously described: fibrils were prepared per Stine et al (JBC 2003, 278, p11612), globulomers were prepared per Barghorn et al (J Neurology 2005 95 p834), ADDLs were prepared per Lambert et al (PNAS 1998, 95 p6448), and ASPDs were prepared per Noguchi et al (JBC 2009 284 p32895). Normal CSF was pooled from clinically characterized non-demented patient CSF samples. AD CSF was pooled from clinically-characterized AD patient samples. Alzheimer's Disease Brain Homogenate (ADBH) was prepared by sonication of clinically diagnosed AD patient brain samples in 0.2M.sucrose (1:10 w/v).
For the capture assay (Misfolded Protein Assay), aliquots of the beads (30 ul) were added to wells of a 96 well plate, followed by 125 ul of sample in 80:20 CSF:TBSTT. The plate was sealed and incubated for 1 h at 37 C with shaking. The plate was washed with TBST and the residual buffer removed. A denaturing solution (0.1 N NaOH) was added to each well and the plate heated to 80 C. for 30 min with shaking. After cooling the plate to RT, a neutralizing buffer (0.12 M NaH2PO3-0.4% TW20,) was added and the plate shaken briefly at RT. The assay was analyzed using the triplex Mesoscale Discovery ELISA kit for Aβ. The Aβ in the samples eluted from the beads were detected per the manufacturer's protocol. […]

The next test addresses T3, Aβ42 ASPD (Homo sapiens, UniProt P05067).
T3 construct: The Ab42 aggregates were prepared as previously described
The test can be described thus: Misfolded Protein Assay, LoD and capture in CSF: ASPD. To be noted: for LoD: spiked into CSF. It counts as binding. As for the experimental part: as §1
For the capture assay (Misfolded Protein Assay), aliquots of the beads (30 ul) were added to wells of a 96 well plate, followed by 125 ul of sample in 80:20 CSF:TBSTT. The plate was sealed and incubated for 1 h at 37 C with shaking. The plate was washed with TBST and the residual buffer removed. A denaturing solution (0.1 N NaOH) was added to each well and the plate heated to 80 C. for 30 min with shaking. After cooling the plate to RT, a neutralizing buffer (0.12 M NaH2PO3-0.4% TW20,) was added and the plate shaken briefly at RT. The assay was analyzed using the triplex Mesoscale Discovery ELISA kit for Aβ. The Aβ in the samples eluted from the beads were detected per the manufacturer's protocol.
For the Limit of Detection (LoD) studies, serial dilutions of each aggregate were spiked into CSF and were assayed per the protocol described above. The LoD was defined as 2× over background levels.
This pattern minors the capture selectivity observed when these species are tested with 3 ul of PSR1 beads and 1 ng/mL of aggregate.

T3 sequence (P05067 672-713 limits assumed): as the sequence (P05067 672-713 limits assumed) above

On to Nab-Nab-Nab-Nbn-Nab-Nbn [PSR1], for which the “binding to alpha synuclein fibrils compared to control bead” value at alpha synuclein fibrils (diluted into CSF or plasma, FIG. 50) was “specifically bound to alpha synuclein (aSyn) fibrils”. Besides, the “binding to alpha synuclein fibrils vs monomers” value on alpha synuclein fibrils (native vs denatured aSyn in CSF or plasma, FIG. 51) is listed as “bound preferentially to alpha synuclein fibrils”. The “42:40 (signal:noise ratio)” value on Abeta 1-42 globulomer (1 ng/ml average reading, ratio of 42 to 40) worked out at 4.1. Besides, the “42, 1 ng/ml average reading” value on Abeta 1-42 globulomer (Abeta 1-42 globulomer spiked at 1 ng/mL into CSF) came out at 970.5 RLUs. For the same substance, the “40, 1 ng/ml average reading” value on Abeta 1-40 monomer is 234.5 RLUs. In addition, the LoD is below 0.2 amol in test [1]; around 20 amol on Aβ42 ASPD; ~200 pg/mL and 200 pg/mL on Aβ42 ASPD (LoD = 2× over background). Further, on Aβ42 ASPD (3 ul of beads and 1 ng/mL of aggregate), the “capture of ASPD” value is recorded as 1096.

The record behind these values is patent US20130109581A1, “POSITIVELY CHARGED SPECIES AS BINDING REAGENTS IN THE SEPARATION OF PROTEIN AGGREGATES FROM MONOMERS” (priority 2009, published 2013).
